Measurements as given in paper PMC6344987 (BMC Complementary and Alternative Medicine, 2019).

Experiments:
[1] = in vivo; details: rat, po, 0.5 mg/kg
Experimental: On the fifth day, blood samples were collected from the 18 h fasted rats at different time intervals namely; at zero time, 0.5, 1, 2, 3, 4, 6, 8, 12, 24, 48 and 72 h from all groups and drawn into EDTA micro tubes. The micro tubes were centrifuged at 7000 RPM for 10 min. Plasma was separated, transferred directly into labeled Eppendorf tubes and stored at − 20 °C until requested for HPLC analysis.
Reversed-phase high-performance liquid chromatography (HPLC) analysis was used to separate samples using Finnigan surveyor system (Thermo Electron Corporation, San Jose, California, USA) on a hypersil™ BDS C-18 Column (150 mm × 4.6 mm, 5 μm) (Thermo Electron Corporation, San Jose, California, USA) and quantified using ultraviolet detection at 310 nm (UV-VIS Plus Detector). The mobile phase was a mixture of 60% acetonitrile HPLC grade and 40% water containing 1 ml triethylamine/l and phosphoric acid (pH 3.0) with a flow rate of 1.0 ml/min (LC pump plus) using 20 μl injection volume (Autosampler Plus). Metronidazole benzoate was used as an internal standard. ChromQuest 4.2.34 chromatography data system was implemented for data acquisition and handling. […] Consequently, different concentrations of working solutions were prepared for plasma spiking by mixing 25 μl of working solutions in 975 μl of plasma (Fig. 1, Table 1). […] The supernatant was then analyzed using an in house validated HPLC method at the Faculty of Pharmacy and Medical Sciences, University of Petra, Amman, Jordan (MSc thesis, Farah Al-Mamoori, 2016, University of Petra).
The calculated pharmacokinetic parameters presented in the current study were maximum plasma concentration (Cmax), area under the curve (AUC), area under the first moment curve (AUMC), mean residence time (MRT), half-life (t0.5), clearance (CL), volume of distribution (Vz), time at which Cmax was observed (Tmax) and elimination rate constant (Kel).

[2] = system: Sprague Dawley rats; test: In vivo pharmacodynamic study: prothrombin time (PT) and INR in rat plasma after five days of oral treatment; details: oral daily for five days, WF 0.5 mg/kg, PPE 100 mg/kg, EA 40 mg/kg, GvL 250 mg/kg, QUE 12.75 mg/kg, mean ± SD (n = 8); for INR: calculated from PT; for PT: plasma on fifth day
Experimental: Adult Sprague Dawley laboratory rats were supplied by the Animal Facility of the University of […], Jordan). […] Rats were fasted overnight with free access to water. All experiments involving animals were conducted according to the institutional guidelines for the use of laboratory animals, which follows the guidelines of the Federation of European Laboratory Animal Science Associations (FELASA). The used animals were euthanized with cervical dislocation at the end of each experiment. The study protocol was revised and approved by the Committee of Scientific Research of the University of Petra (Approval number: 4-2016/2017, Date: 22/06/2017). The rats were weighed and randomized into ten groups (n = 8) and acclimatized for ten days before the experiment. Oral stainless steel gavage needle (Harvard Apparatus, Kent, UK) was used for oral administration of the treatments. Groups were treated daily for five days as following; group 1 received oral 0.5% CMC solution and served as a negative control. […] Group 3 received 100 mg/kg pomegranate peel extract suspension. […] Group 7 received 250 mg/kg guava leaves extract suspension. […] Plasma was separated, transferred directly into labeled Eppendorf tubes for PT and INR analysis. Reconstituted thromboplastin was added to 100 μl of each plasma sample in pre-warmed cuvette at 37 °C. […] INR was calculated from the detected PT according to the manufacturer's instructions.

[3] = system: CYP2C8; test: P450-Glo CYP2C8 (Luciferin-ME) activity in primary isolated rat hepatocytes; format: in vitro ADME; details: n = 6; for CYP2C8 activity relative to untreated isolated hepatocytes, in combination with warfarin: combined with warfarin 3 μg/ml, pomegranate peel extract 120, ellagic acid 48, guava leaves extract 294, quercetin 15 μg/ml
Experimental: (§1) The liver of anaesthetized rat with inhaled isoflurane were perfused with collagenase enzyme as described by. Liver cells were dispersed gently in a sterile petri dish, and prepared for hepatocyte culture as described elsewhere. Cell were plated at a final concentration of 50,000 cell/100 μl and seeded in 96 well plates (100 μl). Cells were left to recover and grow overnight prior to the day of experiment.
(§2) Directly after the addition of treatments, 25 μl of the lumenogenic substrate (Luciferin-H, Luciferin-ME or Luciferin-IPA) was added to each well. The plates were incubated at 37 °C for appropriate time according to manufacture protocol (Promega, USA). Later, 25 μl from culture media from each well was transferred into 96-well opaque white luminometer plate and equal amount of Luciferin detection reagent was added to each well to initiate the luminescent reaction. The reaction was allowed for 20 min at room temperature away from light. Finally, luminescence was read using GloMax®-Multi Detection System (Promega, USA).

[4] = system: CYP3A4; test: P450-Glo CYP3A4 (Luciferin-IPA) activity in primary isolated rat hepatocytes; format: in vitro ADME; details: n = 6; for CYP3A4 activity relative to untreated isolated hepatocytes, in combination with warfarin: combined with warfarin 3 μg/ml, pomegranate peel extract 120, ellagic acid 48, guava leaves extract 294, quercetin 15 μg/ml; for CYP3A4 activity relative to untreated isolated hepatocytes: substance alone, ketoconazole 1, warfarin 3, pomegranate peel extract 120, ellagic acid 48, guava leaves extract 294, quercetin 15 μg/ml
Experimental: as §1
as §2, with “Doses of chemicals selected for in vitro testing on primary cultured hepatocyte mitochondrial activity were estimated after literature review and preliminary work in order to obtain the IC50 values of tested compounds (data not shown). […] Directly” for “Directly”

[5] = system: CYP2C9; test: P450-Glo CYP2C9 (Luciferin-H) activity in primary isolated rat hepatocytes; format: in vitro ADME; details: n = 6; for CYP2C9 activity relative to untreated isolated hepatocytes, in combination with warfarin: combined with warfarin 3 μg/ml, pomegranate peel extract 120, ellagic acid 48, guava leaves extract 294, quercetin 15 μg/ml; for CYP2C9 activity relative to untreated isolated hepatocytes: substance alone, sulfamethoxazole 130, warfarin 3, pomegranate peel extract 120, ellagic acid 48, guava leaves extract 294, quercetin 15 μg/ml
Experimental: as §1, §2

| SMILES | AUC ([1]; Sprague-Dawley) [µg·h/mL] | Cmax ([1]; Sprague-Dawley) [ng/mL] | MRT ([1]; Sprague-Dawley) [h] | Tmax ([1]; Sprague-Dawley) [h] | Vd/F ([1]; Sprague-Dawley) [L] | CL/F [1] [mL/h] | INR [2] | PT [2] [s] | CYP2C8 activity relative to untreated isolated hepatocytes, in combination with warfarin [3] | CYP2C8 activity relative to untreated isolated hepatocytes ([3]; substance alone, trimethoprim 30, warfarin 3, pomegranate peel extract 120, ellagic acid 48, guava leaves extract 294, quercetin 15 μg/ml) | CYP3A4 activity relative to untreated isolated hepatocytes, in combination with warfarin [4] | CYP3A4 activity relative to untreated isolated hepatocytes [4] | CYP2C9 activity relative to untreated isolated hepatocytes, in combination with warfarin [5] | CYP2C9 activity relative to untreated isolated hepatocytes [5] |
| --- | --- | --- | --- | --- | --- | --- | --- | --- | --- | --- | --- | --- | --- | --- |
| CC(=O)CC(c1ccccc1)c1c(O)c2ccccc2oc1=O (centres unmarked) [WF, Warfarin] | 107 | 3670 ± 663 | 25 ± 5 | 6 ± 8 | 0.035 ± 0.015 | 1.45 ± 0.5 | 19 ± 1 | 191 ± 12 |  |  |  |  |  |  |
| O=c1c(O)c(-c2ccc(O)c(O)c2)oc2cc(O)cc(O)c12 [QUE, quercetin hydrate] |  |  |  |  |  |  | 1.39 ± 0.09 | 22.5 ± 1.20 | inhibited | inhibited | inhibited | inhibited | inhibited | inhibited |
| CC(=O)N1CCN(c2ccc(OCC3COC(Cn4ccnc4)(c4ccc(Cl)cc4Cl)O3)cc2)CC1 (centres unmarked) [ketoconazole, reference compound] |  |  |  |  |  |  |  |  |  |  |  | significantly reduced |  |  |
| O=c1oc2c(O)c(O)cc3c(=O)oc4c(O)c(O)cc1c4c23 [EA, ellagic acid] |  |  |  |  |  |  | 1.43 ± 0.10 | 23 ± 1.31 | significantly inhibited |  | significantly inhibited |  | significantly inhibited | significant inhibition |
